# Assay results taken from patent US10426815B2, “Prevention and treatment of itch with an MRGPR antagonist” (THE GENERAL HOSPITAL CORPORATION, priority 2015, dated 2019).
# Entries after “also recorded” stand apart in the source; their conditions may differ.
# Tests used:
# [1] = system: mice (itch, scratching bouts); test: Mouse cheek model, scratching bouts; type: in vivo; conditions: for provocation of itch (scratching bouts) by the injected substance, WT mice: intradermal injection into the cheek; for provocation of itch (scratching bouts) by the injected substance, WT mice / effect on SP-provoked itch (scratching bouts): 10 μl; for effect on SP-provoked itch (scratching bouts): C57BL/6 (WT) mice, co-injected with SP intradermally into the cheek
# Method: The mouse cheek model was used to evaluate scratching behavior in Mrgpr cluster Δ−/− and NK1−/− mice. Mice used for behavioral studies were 2 to 3 months old, 20-30 g. Mice were habituated for 30 minutes/day for 3 days prior and for 15 minutes on the day of the study. 10 μl of each compound were delivered by a 31G needle to the cheek. The mice were not shaved prior to injections to avoid irritation. All experiments were performed at consistent times during the day (9:00 am to 2:00 pm) and under the same conditions and in groups of at least 7 mice. The mice were videotaped in a soundproof environment minimize distraction. Recordings were scored for the number of scratching bouts that occur over 1 minute intervals during 25 minute observation periods and the investigator was not aware of the group allocation during scoring the study and behavioral analysis. A scratching bout was initiated by lifting of the hind paw to the area of injection, and ended by returning of the hind paw to the floor or to the mouth. […]
# For behavioral studies, average numbers of scratching bouts were compared across groups using one-way ANOVA. Pair-wise comparisons were performed using student t test after correcting p values for multiple comparisons using the Bonferroni procedure. For DRG studies and mast cell degranulation studies, unpaired student t-test was used. Differences were considered to be statistically significant for P<0.05. Data analysis was performed using PRISM 6.
# [2] = system: Mrgprs; test: Calcium imaging of transfected HeLa cells, statements on Mrgprs not named singly; type: cell-based; conditions: for inhibition of activation of Mrgprs by SP: FIG. 6a: cells pretreated with inhibitor 10 minutes
# Method: They were then mixed and incubated at RT for 20 minutes prior to being added to HeLa cells. HeLa cells were grown to confluence, trypsinized and 1×10^6 cells were pelleted in a 15 ml tube by centrifugation at 1000 rpm for 5 minutes. The DMEM-LIPOFECTAMINE 2000-DNA mixture (1 ml) was then added to the cell pellet, suspended and incubated at RT for 5 minutes. 2 ml of complete DMEM with 10% FBS without antibiotics were added to the tube, mixed by inverting the tube, plated into a 96-well glass bottom plate at 50,000 cells/well, and placed in a 37° C. CO2 incubator for 3 hours. HeLa cells transfected with salmon sperm DNA were plated as a control. The medium was changed after 3 hours and left in the incubator. 24 hours after transfection, the medium in the wells was removed and 100 μl of complete DMEM containing 2 μM of FURA-2 were added to each well and left at room temperature in the dark for 1 hr. Following loading with FURA-2, the medium was removed, washed with PBS and replaced with 90 μl of HEPES-buffered saline (20 mM HEPES, 115 mM NaCl, 5.4 mM KCl, 2 mM CaCl2, 0.8 mM MgCl2, 13.8 mM glucose, pH 7.4). Calcium imaging was performed immediately after loading cells with Fura-2, using a ZEISS Axiovert 200M microscope platform equipped with a flipping filter wheel for ratiometric imaging. Axiovision software, version 4.6 was used for calcium image analysis of the cells excited at 340 nm and 380 nm. Agonists were added at 15 seconds after the start of the excitation procedure. […] The software later analyzed all images taken during each excitation period. Ratiometric changes were measured in 10-20 cells in each individual experiment. An average of the fluorescence of the cells in each image was calculated and plotted against time in seconds.
# [3] = target: T1, MrgX2 (human MRGPRX2) (Homo sapiens, UniProt Q96LB1); test: Calcium imaging of cells transfected with the GPCR (Table 1); type: cell-based; conditions: for inhibition of SP-induced activation of human MRGPRX2: FIG. 6a: SP 500 nM, inhibitors 1 μM, FK888 10 μM
# T1 construct: expressed in transfected cells; host or cells: HeLa cells, pcDNA3.1(-)
# T1 sequence (Q96LB1 1-330): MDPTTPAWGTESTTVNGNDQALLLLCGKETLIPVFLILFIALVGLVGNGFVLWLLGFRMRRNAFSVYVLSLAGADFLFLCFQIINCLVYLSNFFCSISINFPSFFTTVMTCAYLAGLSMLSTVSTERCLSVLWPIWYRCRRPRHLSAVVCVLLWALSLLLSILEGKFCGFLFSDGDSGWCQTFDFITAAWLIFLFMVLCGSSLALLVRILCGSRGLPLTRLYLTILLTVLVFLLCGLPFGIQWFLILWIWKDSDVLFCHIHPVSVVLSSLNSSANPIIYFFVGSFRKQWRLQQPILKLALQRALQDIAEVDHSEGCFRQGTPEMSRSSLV
# Method: human MRGPRX2 was isolated by PCR from human genomic DNA using the forward and reverse primers, […] (SEQ. ID. NO: 3) and […] (SEQ. ID. NO: 4), and cloned into pcDNA3.1(−). The mouse MrgprA1 cDNA expression clone was purchased from ORIGENE Technologies. The mouse MrgprB2 coding sequences were PCR-amplified from mouse genomic DNA using the primer pair, […] (SEQ. ID. NO: 5) and […] (SEQ. ID. NO: 6), and cloned into pcDNA3.1 (−).
# 10 μg of expression vector (human MRGPRX2, mouse MrgprA1 or NK1) and 10 μl of LIPOFECTAMINE 2000 transfection reagent were diluted into 0.5 ml of DMEM and separately left at room temperature (RT) for 5 min. They were then mixed and incubated at RT for 20 minutes prior to being added to HeLa cells. HeLa cells were grown to confluence, trypsinized and 1×10^6 cells were pelleted in a 15 ml tube by centrifugation at 1000 rpm for 5 minutes. The DMEM-LIPOFECTAMINE 2000-DNA mixture (1 ml) was then added to the cell pellet, suspended and incubated at RT for 5 minutes. 2 ml of complete DMEM with 10% FBS without antibiotics were added to the tube, mixed by inverting the tube, plated into a 96-well glass bottom plate at 50,000 cells/well, and placed in a 37° C. CO2 incubator for 3 hours. HeLa cells transfected with salmon sperm DNA were plated as a control. The medium was changed after 3 hours and left in the incubator. 24 hours after transfection, the medium in the wells was removed and 100 μl of complete DMEM containing 2 μM of FURA-2 were added to each well and left at room temperature in the dark for 1 hr. Following loading with FURA-2, the medium was removed, washed with PBS and replaced with 90 μl of HEPES-buffered saline (20 mM HEPES, 115 mM NaCl, 5.4 mM KCl, 2 mM CaCl2, 0.8 mM MgCl2, 13.8 mM glucose, pH 7.4).
# Calcium imaging was performed immediately after loading cells with Fura-2, using a ZEISS Axiovert 200M microscope platform equipped with a flipping filter wheel for ratiometric imaging. Axiovision software, version 4.6 was used for calcium image analysis of the cells excited at 340 nm and 380 nm. Agonists were added at 15 seconds after the start of the excitation procedure. Antagonists were added five minutes before imaging with the agonists. Images were taken every 5 seconds, including at zero time, during a 90 second period or longer if required. The software later analyzed all images taken during each excitation period. Ratiometric changes were measured in 10-20 cells in each individual experiment. An average of the fluorescence of the cells in each image was calculated and plotted against time in seconds.
# Each of the concentration dependent readings was performed in triplicate. Maximum intensities at each of the dilutions were calculated and plotted against concentration using GraphPad Prism software. Error bars represent SEM.
# [4] = C57BL/6 mice, co-injected intradermally into the cheek, 10 μL, 500 μM of each substance
compound,measurement,setting,value
"SP: inflammatory undecapeptide neuropeptide of the tachykinin family, synthesized by GenScript",SP-provoked itch in NK1 knockout mice,"[1]; cheek, intradermal, FIG. 5a: 10 μL SP 1 mM, compared to WT",induced itch; also recorded: provoked itch; also recorded: not decreased
same,SP-provoked itch in Mrgpr cluster knockout mice,"[1]; cheek, intradermal, FIG. 5a: 10 μL SP 1 mM, compared to WT, listed as Substance P",does not provoke itch
same,"provocation of itch (scratching bouts) by the injected substance, WT mice",[1],induced itch; also recorded: provoked itch
same,"provocation of itch (scratching bouts) by the injected substance, WT mice",[1]; listed as Substance P,provokes itch
C[C@@H](O[C@H]1OCCN(Cc2n[nH]c(=O)[nH]2)[C@H]1c1ccc(F)cc1)c1cc(C(F)(F)F)cc(C(F)(F)F)c1 [aprepitant],inhibition of activation of Mrgprs by SP,[2],did not impact; also recorded: do not inhibit
same,inhibition of SP-induced activation of human MRGPRX2,[3],did not impact
SLIGRL: tethered hexapeptide ligand of mouse PAR2 (SEQ ID NO: 7),"provocation of itch (scratching bouts) by the injected substance, WT mice",[1],provoke itch
same,activation of human MRGPRX2 by the substance (in words),"[3]; NPFF 50 μM, capsaicin 3 μM, SP at nanomolar concentrations",activates
FC(F)(F)c1cc(CO[C@H]2CCCN[C@H]2c2ccccc2)cc(C(F)(F)F)c1 [L-733060],inhibition of activation of Mrgprs by SP,[2],did not impact
same,inhibition of activation of Mrgprs by SP,[2]; listed as L733060,do not inhibit
same,effect on SP-provoked itch (scratching bouts),[1]; 500 μM of each substance,only minimally effective; also recorded: not effective
same,effect on SP-provoked itch (scratching bouts),"[1]; 500 μM of each substance, listed as L733060",does not significantly decrease and not and lack of significant blockade and does not
same,inhibition of SP-induced activation of human MRGPRX2,[3],did not impact
Boc-Gln-D-Trp(Formyl)-Phe benzyl ester trifluoroacetate [QWF],inhibition of activation of Mrgprs by SP,[2],blocks
same,inhibition of activation of Mrgprs by compound 48/80,"[2]; FIG. 7b: compound 48/80 1 μM, QWF 1 μM",antagonizes; also recorded: inhibits
same,effect on SP-provoked itch (scratching bouts),[1]; 500 μM of each substance,significantly decreased; also recorded: decreased SP-induced itch to baseline; also recorded: decreased SP-provoked itch to baseline; also recorded: reduced to baseline
same,effect on SLIGRL-provoked itch (scratching bouts),[1]; [4],blocks; also recorded: reduced to baseline; also recorded: significantly decreased
same,effect on compound 48/80-provoked itch (scratching bouts),[1]; [4],blocks compound 48/80-induced itch to baseline; also recorded: blocks compound 48/80-provoked itch to baseline; also recorded: reduced to baseline; also recorded: significantly decreased
same,inhibition of hMRGPRX2 activation by compound 48/80,[3],inhibits
same,inhibition of SP-induced activation of human MRGPRX2,[3],excellent inhibitor; also recorded: potent antagonist; also recorded: inhibits
same,inhibition of human MRGPRX2 activation by atracurium and ciprofloxacin,[3]; FIG. 8a,antagonized; also recorded: inhibits
